“Also recorded” adds a separate entry of the source.
Key:
[1] = Plasma pharmacokinetics in mice determined by GLMSD; format: in vivo, mouse; settings: ip, TMZ injected into abdominal cavity of mouse, plasma, average of 8 mice
Method: It can be seen from FIG. 8-1 that the GLMSD platform can specifically acquire the pharmacokinetic data of small-molecule compound 27. Competitive advantages of GLMSD in pharmacokinetic research: (1) a complete drug blood concentration curve of each individual may be tracked; and (2) the total number of mice used in the test is reduced. Since the blood sample consumption of the GLMSD method is low (10 μL of blood per time point), one mouse can be used for completing the entire pharmacokinetic curve (blood sampling at 11 time points within 24 hours, and the minimum interval being 0.25 hour) of a drug.
Based on the advantage that the complete PK curve can be tested by means of the GLMSD, we observe that 3 (#2, #3 and #4) in 8 mice have the characteristic re-absorption peak of this small-molecule inhibitor at the time point of 8 h, and such a characteristic re-absorption peak hardly exists in other 5 mice. This significant phenomenon is related to drug uptake differences between individuals, prompting that compound 27 may re-enter blood circulation by means of a secondary absorption pathway. In the mode of continuous multiple administration (c in FIG. 8-2), pharmacokinetic data of compound 27 (40 mg/kg) was collected from each mouse every day (1, 3, 6, and 8 hours after last administration) for 5 days. For a single dose (a in FIG. 8-2) or a continuous multi-dose (d in FIG. 8-2) administration manner, a limitation of a conventional LC-MS technology lies in obtaining a single data point of pharmacokinetics of a drug by sacrificing one mouse, whereas GLMSD can break through this limitation by providing a complete pharmacokinetic curve based on a single mouse.

[2] = tested on: U87MG tumor; experiment: U87MG tumor growth and survival in mice after various treatments; format: in vivo, nude mouse; settings: for median survival time: mice with U87MG tumor, n=6 per group
Description: In all different experimental groups (a and b in FIG. 10), the overall survival (OS) of mice treated with TMZ and compound 27 is the best. […] However, mouse death caused by glioma is reduced only 20 days […] treatment. After this period of time, the survival rates of the in-situ U87 heterogeneous tumor of the two single drug groups decreases rapidly due to malignant glioma.

[3] = molecular target: T1, hexokinase 2 (HK2) (Homo sapiens, UniProt P52789); experiment: HK2 activity test on GLMSD platform (graphite dots MALDI-MS); format: biochemical; settings: for inhibitory effect on the HK2: inhibition curves FIGS. 3-7, colorimetric kit and GLMSD; for inhibition at 20 µM: read-out: inhibition rate of HK2 activity
T1 sequence (P52789 1-917): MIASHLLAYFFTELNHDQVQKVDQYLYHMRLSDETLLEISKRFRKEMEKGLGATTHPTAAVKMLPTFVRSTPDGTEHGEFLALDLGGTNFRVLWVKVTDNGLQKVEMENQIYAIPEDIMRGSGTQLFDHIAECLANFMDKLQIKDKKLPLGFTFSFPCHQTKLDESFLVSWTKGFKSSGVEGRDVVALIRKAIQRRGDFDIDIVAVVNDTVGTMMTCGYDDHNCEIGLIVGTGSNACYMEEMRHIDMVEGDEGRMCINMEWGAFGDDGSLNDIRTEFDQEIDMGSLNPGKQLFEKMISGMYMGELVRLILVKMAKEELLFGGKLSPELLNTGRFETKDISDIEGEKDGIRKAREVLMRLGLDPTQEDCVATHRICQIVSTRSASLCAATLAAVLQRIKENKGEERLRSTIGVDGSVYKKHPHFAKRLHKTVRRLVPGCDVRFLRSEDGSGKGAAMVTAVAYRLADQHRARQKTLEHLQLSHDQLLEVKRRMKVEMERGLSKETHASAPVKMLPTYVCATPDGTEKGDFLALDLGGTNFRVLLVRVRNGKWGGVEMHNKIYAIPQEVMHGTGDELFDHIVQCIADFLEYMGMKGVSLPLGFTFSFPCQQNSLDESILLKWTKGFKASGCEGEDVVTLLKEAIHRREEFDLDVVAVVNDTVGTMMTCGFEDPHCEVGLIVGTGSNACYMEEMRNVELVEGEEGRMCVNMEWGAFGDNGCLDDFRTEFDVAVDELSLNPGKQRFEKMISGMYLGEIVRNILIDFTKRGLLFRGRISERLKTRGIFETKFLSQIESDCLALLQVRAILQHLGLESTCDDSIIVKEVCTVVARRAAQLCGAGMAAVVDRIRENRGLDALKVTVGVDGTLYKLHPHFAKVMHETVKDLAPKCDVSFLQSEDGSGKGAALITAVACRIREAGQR
Method: GDs were dispersed in water at a concentration of 1 mg/mL as a matrix solution to be used. A sample was prepared by using a quick-drying method: firstly, 1 μL of matrix solution was dropped onto a target plate, and after natural drying at a room temperature in a […], 1 μL of sample to be analyzed was dropped onto a surface of the dried matrix, and after the sample was naturally dried, mass spectrometry was directly performed:
An instrument in the MALDI-MS was a Bruker Ultraflex III TOF/TOF mass spectrometer, which was mainly in a reflection positive and negative ion mode. Nd of 355 nm for instrument parameter: YAG laser had laser energy of 30% corresponding to 57 μJ per pulse (laser pulse duration: 3 ns), a laser spot size was about 50-100 μm, each sample was repeatedly tested four times, and 3000 laser spots were accumulated in each mass spectrum. All samples were measured under the same instrumental conditions.
an inhibition rate=(1−B/A)×100%, where • A was: a glucose concentration in a pre-reaction solution without the inhibitor-a glucose concentration in a post-reaction solution without the inhibitor, • B was: a glucose concentration in a pre-reaction solution with the inhibitor-a glucose concentration in a post-reaction solution with the inhibitor, and • a glucose concentration in the reaction solution=(mass spectrum signal strength of [glucose+Na]+/mass spectrum signal strength of [glucose-1-^13C+Na]+)×known concentration of glucose-1-^13C.

[4] = tested on: cranial nerve glioma cell U87; experiment: Antiproliferative activity against cranial nerve glioma cell U87; format: cell-based; settings: U87 cells, FIG. 14
Description: FIG. 14 is an antiproliferative activity test diagram of compound 8, compound 11, compound 13, and compound 21 against a cranial nerve glioma cell U87.

[5] = small-molecule concentration of the inhibitor 20 μM, GLMSD

## COc1ccc(CN2CCNCC2)c(OC)c1OC [TMZ, Trimetazidine, reference compound]
[1]; read-out: AUC0-24 h
  AUC(0-t): 247 µg·h/mL
[1]; read-out: Cmax
  Cmax: 33700 ng/mL
[1]; read-out: T1/2 (converted)
  half-life: 1.72 h
[1]; read-out: Tmax
  Tmax: 0.5 h
[2]; in situ U87-luciferase mice, compared with PBS
  glioma growth / survival rate, bioluminescence tracking: delays the growth of glioma
[2]
  median survival time: 35 days

## O=C(O)C(=O)CBr [3-BP, 3-bromopyruvic acid, reference compound]
[2]
  median survival time: 17 days

## COc1cccc(CNCCCn2ccnc2)c1OCc1ccc(F)cc1 [compound 8]
[3]
  inhibitory effect on the HK2: good inhibitory effects
[3]; [5]
  inhibition rate of HK2 activity: 44%
[4]
  inhibitory effect on U87: inhibitory effects on U87

## Cc1c(CCC(=O)NC2CS(=O)(=O)CC2O)c(=O)oc2cc(O)ccc12 (stereo not shown) [compound 11]
[3]
  inhibitory effect on the HK2: good inhibition effect; also recorded: good inhibitory effects
[3]; [5]
  inhibition at 20 µM: 29%
[4]
  inhibitory effect on U87: inhibitory effects on U87

## COc1ccccc1OCC(=O)NNC(=O)CCCC(=O)NNC(=O)COc1ccccc1OC [compound 21]
[3]
  inhibitory effect on the HK2: good inhibitory effects
[3]; [5]
  inhibition at 20 µM: 25%
[4]
  inhibitory effect on U87: inhibitory effects on U87
